Laboratory results: US20260109707A1, “HETEROBIFUNCTIONAL COMPOUNDS AND METHODS OF TREATING DISEASE” (Halda Therapeutics OpCo. Inc., priority 2022, published 2026)
Read-outs that look alike come from different tables or passages of the source.

Key:
[1] = tested on: VCaP cells; assay: Cellular growth inhibition assay for VCaP cells (CellTiter-Glo, 72 hours); format: cell-based, human
Summary of the method: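 Luminescent viability signal after 72 h of compound exposure gave GI50 values by four-parameter nonlinear regression. Compounds were added in 0.5% DMSO to cells plated 24 h earlier at 5000/well in DMEM containing 10% FBS.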

[2] = tested on: T-Rex 293 cell line SC3 cells having increased expression of androgen receptor protein due to exposure to doxycycline; assay: Cellular growth inhibition assay, T-Rex 293 SC3 cells with doxycycline (CellTiter-Glo, 72 hours); format: cell-based; settings: T-Rex 293 SC3 cells with increased androgen receptor expression due to doxycycline (10 ng/mL)
Summary of the method: (§1)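 Doxycycline (10 ng/mL) was either included or omitted to toggle wild-type androgen receptor expression in SC3 cells, a T-Rex 293 clone, grown in stripped-serum, phenol red-free medium. After 72 hours with compound, viable cells were quantified by CellTiter-Glo 2.0.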

[3] = tested on: T-Rex 293 cell line SC3 cells lacking increased expression of androgen receptor protein; assay: Cellular growth inhibition assay, T-Rex 293 SC3 cells without doxycycline (CellTiter-Glo, 72 hours); format: cell-based; settings: T-Rex 293 cell line SC3 cells not exposed to doxycycline (lacking increased androgen receptor expression)
Summary of the method: as §1

[4] = tested on: T47D cells; assay: Cellular growth inhibition assay for T47D cells (CellTiter-Glo, 72 hours); format: cell-based, human; settings: 72 hours treatment
Summary of the method: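 Luminescence from CellTiter-Glo 2.0 after 72 h of compound exposure gives the viability signal. Cells grew in insulin-supplemented (0.2 units/mL) DMEM with 10% FBS and were treated one day after seeding at 0.5% DMSO. GI50 values come from four-parameter nonlinear regression.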

Row | SMILES | GI50 ([1]; Homo sapiens, VCaP, 72 h) | GI50 ([4]; Homo sapiens, T47D, 72 h) | GI50 [1] | GI50 [4] | GI50 ([2]; 72 h) | GI50 ([3]; 72 h) | GI50 [2] | GI50 [3]
1 | Cc1sc2c(c1C)C(c1ccc(CC[C@H]3CC[C@@]4(CCCN(c5ccc(C(=O)N[C@H]6CC[C@H](Oc7ccc(C#N)c(Cl)c7)CC6)nn5)C4)C3)cc1)=N[C@@H](Cc1ncco1)c1nnc(C)n1-2 [I-213] | > 3000 nM | > 3000 nM | – | – | > 3000 nM | > 3000 nM | – | –
2 | Cc1sc2c(c1C)C(c1ccc(OC[C@H]3CCCN(c4ccc(C(=O)N[C@H]5CC[C@H](Oc6ccc(C#N)c(Cl)c6)CC5)nn4)C3)cc1)=N[C@@H](Cc1ncco1)c1nnc(C)n1-2 [I-219] | 500 to 1500 nM | 1500 to 3000 nM | – | – | < 500 nM | 1500 to 3000 nM | – | –
3 | Cc1sc2c(c1C)C(c1ccc(OC3CN(CC4CCN(c5ccc(C(=O)N[C@H]6CC[C@H](Oc7ccc(C#N)c(Cl)c7)CC6)nn5)CC4)C3)cc1)=N[C@@H](Cc1ncco1)c1nnc(C)n1-2 [I-87] | – | – | < 500 nM | < 500 nM | – | – | < 500 nM | < 500 nM
4 | Cc1sc2c(c1C)C(c1ccc(CNC(=O)CNC(=O)c3ccc(C(=O)N[C@H]4CC[C@H](Oc5ccc(C#N)c(Cl)c5)CC4)nn3)cc1)=N[C@@H](Cc1ncco1)c1nnc(C)n1-2 [I-233] | < 500 nM | 500 to 1500 nM | – | – | < 500 nM | > 3000 nM | – | –
5 | Cc1sc2c(c1C)C(c1ccc(O[C@H]3CC[C@]4(CCCN(c5ccc(C(=O)N[C@H]6CC[C@H](Oc7ccc(C#N)c(Cl)c7)CC6)nn5)C4)C3)cc1)=N[C@@H](Cc1ncco1)c1nnc(C)n1-2 [I-97] | < 500 nM | < 500 nM | – | – | < 500 nM | < 500 nM | – | –
6 | Cc1sc2c(c1C)C(c1ccc([C@H]3C[C@@H](C4CC5(CCN(c6ccc(C(=O)N[C@H]7CC[C@H](Oc8ccc(C#N)c(Cl)c8)CC7)nn6)CC5)C4)C3)cc1)=N[C@@H](Cc1ncco1)c1nnc(C)n1-2 [I-380] | > 3000 nM | > 3000 nM | – | – | > 3000 nM | > 3000 nM | – | –
7 | CNc1ccc2c(n1)C(c1ccc(OC3CC4(CCN(c5ccc(C(=O)N[C@H]6CC[C@H](Oc7ccc(C#N)c(Cl)c7)CC6)nn5)CC4)C3)cc1)=NCc1onc(C)c1-2 [I-106] | < 500 nM | > 3000 nM | – | – | < 500 nM | > 3000 nM | – | –
8 | Cc1sc2c(c1C)C(c1ccc(OC3CC4(CCN(c5ccc(C(=O)N[C@H]6CC[C@H](Oc7ccc(C#N)c(Cl)c7)CC6)nn5)CC4)C3)cc1)=N[C@@](C)(C(C)c1ncco1)c1nnc(C)n1-2 (stereo partly drawn) [I-226] | > 3000 nM | 500 to 1500 nM | – | – | < 500 nM | > 3000 nM | – | –
9 | Cc1sc2c(c1C)C(c1ccc(C#CC3CC4(C3)CN(c3ccc(C(=O)N[C@H]5CC[C@H](Oc6ccc(C#N)c(Cl)c6)CC5)nn3)C4)nc1)=N[C@H](Cc1ncco1)c1nnc(C)n1-2 [I-322] | < 500 nM | < 500 nM | – | – | < 500 nM | < 500 nM | – | –
10 | CC1=NN=C2C1c1sc(C)c(C)c1C(c1ccc(C3CCC4(CC3)CCN(c3ccc(C(=O)N[C@H]5CC[C@H](Oc6ccc(C#N)c(Cl)c6)CC5)nn3)CC4)cc1)=N[C@@H]2Cc1ncco1 (stereo partly drawn) [I-410] | < 500 nM | < 500 nM | – | – | < 500 nM | < 500 nM | – | –

The next lines start with results.

Row | GI50 ([1]; Homo sapiens, VCaP, 72 h) | GI50 ([4]; Homo sapiens, T47D, 72 h) | GI50 [1] | GI50 [4] | SMILES | GI50 ([2]; 72 h) | GI50 ([3]; 72 h) | GI50 [2] | GI50 [3]
11 | < 500 nM | < 500 nM | – | – | Cc1sc2c(c1C)C(c1ccc(OC[C@H]3CC[C@]4(C3)CN(c3ccc(C(=O)N[C@H]5CC[C@H](Oc6ccc(C#N)c(Cl)c6)CC5)nn3)CCO4)cn1)=N[C@@H](Cc1ncco1)c1nnc(C)n1-2 [I-405] | < 500 nM | < 500 nM | – | –
12 | < 500 nM | < 500 nM | – | – | Cc1sc2c(c1C)C(c1ccc(C[C@H]3CC[C@]4(CCCN(c5ccc(C(=O)N[C@H]6CC[C@H](Oc7ccc(C#N)c(Cl)c7)CC6)nn5)C4)C3)cc1)=N[C@@H](Cc1ncco1)c1nnc(C)n1-2 [I-124] | < 500 nM | < 500 nM | – | –
13 | < 500 nM | < 500 nM | – | – | Cc1sc2c(c1C)C(c1ccc(OC3CC4(CCN(c5ccc(C(=O)N[C@H]6CC[C@H](Oc7ccc(C#N)c(Cl)c7)CC6)cn5)CC4)C3)cc1)=N[C@@H](Cc1ncco1)c1nnc(C)n1-2 [I-88] | < 500 nM | < 500 nM | – | –
14 | < 500 nM | < 500 nM | – | – | Cc1sc2c(c1C)C(c1ccc(C3CCC(N4CCCN(c5ccc(C(=O)N[C@H]6CC[C@H](Oc7ccc(C#N)c(Cl)c7)CC6)nn5)CC4)CC3)cc1)=N[C@H](Cc1ncco1)c1nnc(C)n1-2 (stereo partly drawn) [I-225] | < 500 nM | < 500 nM | – | –
15 | < 500 nM | < 500 nM | – | – | Cc1sc2c(c1C)C(c1ccc(C[C@H]3CC[C@]4(C3)CN(c3ccc(C(=O)N[C@H]5CC[C@H](Oc6ccc(C#N)c(Cl)c6)CC5)nn3)CCO4)cc1)=N[C@@H](Cc1ncco1)c1nnc(C)n1-2 [I-266] | < 500 nM | < 500 nM | – | –
